Target: T1, SimG AT domain (LD-AT) (Tolypocladium inflatum, UniProt Z9QNP6F7M4)
T1 construct: excised AT domain with flanking linker domain (LD), active-site Ser706; recombinant; borders only in ESI
T1 sequence (Z9QNP6F7M4 1-440): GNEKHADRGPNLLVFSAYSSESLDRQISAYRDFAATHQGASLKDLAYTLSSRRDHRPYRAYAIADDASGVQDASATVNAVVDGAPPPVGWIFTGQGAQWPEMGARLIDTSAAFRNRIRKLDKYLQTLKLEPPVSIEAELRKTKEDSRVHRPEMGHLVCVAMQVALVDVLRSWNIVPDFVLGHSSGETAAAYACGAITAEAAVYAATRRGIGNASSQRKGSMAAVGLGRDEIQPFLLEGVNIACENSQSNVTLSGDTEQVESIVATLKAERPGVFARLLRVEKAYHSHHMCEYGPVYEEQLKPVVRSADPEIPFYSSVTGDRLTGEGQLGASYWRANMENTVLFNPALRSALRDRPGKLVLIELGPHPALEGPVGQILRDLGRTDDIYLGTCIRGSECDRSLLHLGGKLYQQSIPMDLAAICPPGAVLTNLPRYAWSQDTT
Assay: intact protein MS, acyl-enzyme formation
Assay type: biochemical
Settings: covalent; active site Ser706

SMILES | % acylation of AT domain
CCCC(=O)SCCNC(=O)CCNC(=O)[C@H](O)C(C)(C)COP(=O)(O)OP(=O)(O)OC[C@H]1O[C@@H](n2cnc3c(N)ncnc32)[C@H](O)[C@@H]1OP(=O)(O)O [butyryl-CoA] | good levels of AT transacylation were observed for C3–C10 substrates
CCCCCCCCCC(=O)SCCNC(=O)CCNC(=O)[C@H](O)C(C)(C)COP(=O)(O)OP(=O)(O)OC[C@H]1O[C@@H](n2cnc3c(N)ncnc32)[C@H](O)[C@@H]1OP(=O)(O)O [decanoyl-CoA] | good levels of AT transacylation were observed for C3–C10 substrates
CCCCCC(=O)SCCNC(=O)CCNC(=O)[C@H](O)C(C)(C)COP(=O)(O)OP(=O)(O)OC[C@H]1O[C@@H](n2cnc3c(N)ncnc32)[C@H](O)[C@@H]1OP(=O)(O)O [hexanoyl-CoA] | good levels of AT transacylation were observed for C3–C10 substrates
CC(C(=O)O)C(=O)SCCNC(=O)CCNC(=O)[C@H](O)C(C)(C)COP(=O)(O)OP(=O)(O)OC[C@H]1O[C@@H](n2cnc3c(N)ncnc32)[C@H](O)[C@@H]1OP(=O)(O)O (some centres unmarked) [methylmalonyl-CoA] | methylmalonyl-CoA was able to acylate the AT domain
CCCCCCCC(=O)SCCNC(=O)CCNC(=O)[C@H](O)C(C)(C)COP(=O)(O)OP(=O)(O)OC[C@H]1O[C@@H](n2cnc3c(N)ncnc32)[C@H](O)[C@@H]1OP(=O)(O)O [octanoyl-CoA] | good levels of AT transacylation were observed for C3–C10 substrates
CCC(=O)SCCNC(=O)CCNC(=O)[C@H](O)C(C)(C)COP(=O)(O)OP(=O)(O)OC[C@H]1O[C@@H](n2cnc3c(N)ncnc32)[C@H](O)[C@@H]1OP(=O)(O)O [propionyl-CoA] | good levels of AT transacylation were observed for C3–C10 substrates

Target: T1, SimG AT domain (LD-AT)
Assay: intact protein MS, acyl-enzyme formation
Assay type: biochemical
Settings: covalent; active site Ser706; excess acyl-CoA; no ACP

% loading of AT domain | SMILES
35.3 ± 0.9% | CC(=O)SCCNC(=O)CCNC(=O)[C@H](O)C(C)(C)COP(=O)(O)OP(=O)(O)OC[C@H]1O[C@@H](n2cnc3c(N)ncnc32)[C@H](O)[C@@H]1OP(=O)(O)O [acetyl-CoA]
64.5 ± 1.4% | CC(C)(COP(=O)(O)OP(=O)(O)OC[C@H]1O[C@@H](n2cnc3c(N)ncnc32)[C@H](O)[C@@H]1OP(=O)(O)O)[C@@H](O)C(=O)NCCC(=O)NCCSC(=O)CC(=O)O [malonyl-CoA]

From PMC12199272, “Biochemical dissection of a fungal highly reducing polyketide synthase condensing region reveals basis for acyl group selection” (Chemical Science, 2025)
